From patent US4864038A, “Antihypercholesterolemic compounds” (Merck & Co., Inc., priority 1988, dated 1989)

Test system: HMG-CoA reductase
Assay: HMG-CoA Reductase Inhibition Assay (in vitro, intrinsic inhibitory activity)
Assay type: biochemical
Details: IC50 of test compound compared with compactin determined simultaneously, compactin assigned a value of 100; tested as sodium salt of dihydroxy acid form; rat liver microsomal enzyme
Procedure: The intrinsic HMG-CoA reductase inhibition activity of the claimed compounds is measured in the in vitro protocol published in J. Med. Chem., 28, p. 347-358 (1985) and described below:
Male Holtzman Sprague-Dawley rats (225-250 g) were kept on reversed lighting and fed Purina rat chow containing 3% cholestryamine for 7 days preceding their sacrifice by CO2 asphyxiation. Livers were removed 6 hours into the dark cycle and used immediately to prepare microsomes. […]
Test compounds or compactin (after first being converted to the sodium salt of their dihydroxy acid form in situ by addition of 1N NaOH (1 equivalent) were added to the assay system in 10-μL volumes at multiconcentration levels. After a 40-minute incubation at 37° C. with shaking and exposure to air, the reaction was stopped by the addition of 0.4 mL of 8N HCl. After an additional 30-minute incubation period at 37° C. to ensure the complete lactonization of mevalonic acid to mevalonolactone, 0.2 ml of the mixture was added to an 0.5×5.0 cm column containing 100-200 mesh Bio-Rex 5, chloride form (Bio-Rad), wetted with distilled water, as described by Alberts et al [J. Proc. Natl. Acad. Sci. U.S.A., 1980, 77, 3957]. […] Five milliliters of Aquasol-2 (New England Nuclear) was added to each vial, and radioactivity was measured in a Packard Tri Carb Prias scintillation counter. […]

Relative Potency	Compound
156	C[C@H]1C=C2C=C[C@H](C)[C@H](CC[C@@H]3C[C@@H](O)CC(=O)O3)[C@H]2[C@@H](OC(=O)C(C)(C)Sc2ccccc2)C1 [Example 1, 6(R)-[2-[8(S)-[2-Methyl-2-(phenylthio)propionyloxy]-2(S),6(R)-dimethyl-1,2,6,7,8,8a(R)-hexahydronaphthyl-1(S)]ethyl]-4(R)-hydroxy-3,4,5,6-tetrahydro-2H-pyran-2-one]
38	C[C@H]1C=C2C=C[C@H](C)[C@H](CC[C@@H]3C[C@@H](O)CC(=O)O3)[C@H]2[C@@H](OC(=O)C(C)(C)[S+]([O-])c2ccccc2)C1 (stereo partly drawn) [Example 2, 6(R)-[2-[8(S)-[2-Methyl-2-(phenylsulfinyl)propionyloxy]-2(S),6(R)-dimethyl-1,2,6,7,8,8a(R)-hexahydronaphthyl-1(S)]ethyl]-4(R)-hydroxy-3,4,5,,6-tetrahydro-2H-pyran-2-one]
